Test results reported in patent US10851069B2, “Compositions of crystallized hydrophobic compounds and methods of making and using same” (Massachusetts Institute of Technology, priority 2016, dated 2020).

Columns and labels:
[1] = In vitro drug release from alginate capsules loaded with crystalline or amorphous formulations; format: physicochemical
Experimental: Release study was carried out in 3 different media, a normal saline-Isopropyl alcohol (10%) mixture, a phosphate buffer (pH 7.4), or for accelerated condition with phosphate buffered saline (pH 7.4) either with 0.1% w/v or 03% w/v SDS. Release study at NS+10% IPA was carried out in 2 ml medium at 37° C. Sampling was carried out by replacement of 1.5 ml of release medium by total replacement of release medium with fresh medium. […] For release in accelerated condition (PBS+SDS), the same time points were followed while 20 μl of drug loaded capsules were incubated in 2 ml release medium to achieve sink conditions. Drug concentration in samples was measured by reverse phase HPLC on C-18 column with a mobile phase or using UV calibrated system. An isocratic mode was set at a flow rate of 0.5-2 ml/min and a different wave-length of nm and 20-50 μl of samples was injected into an HPLC system (Waters, LC-Module-I) or UV analyzed. Calibration curves were prepared in concentration range of 0.05-10 μg/ml. Using prepared calibration curves, drugs concentration in different release samples were calculated.

C57BL/6 mice [2] = assay: Crystalline drug-loaded alginate capsules, long-term IP/SC implantation, prevention of fibrosis; format: in vivo; settings: crystalline form in alginate capsules, retrieved after 1, 3 and 6 months from IP space
Excerpt: Lead compounds identified by screening the amorphous formulations (e.g., compounds of Formulae I-X, particularly LY215799, Dx, Curcumin, GW2580, QNZ and Ki20227) were studied for long-term release and prevention of fibrosis following encapsulation in crystalline form and implantation into the intraperitoneal (IP) space of C57BL/6 mice for long term testing. […] Drug extraction analysis by HPLC also determined that notable percentages (e.g., more than 50%) of the loaded drug remained within the retrieved capsules (FIG. 22D), particularly in the subcutaneous implanted samples. […] In contrast, capsules retrieved from the IP space 6 months post-implantation were identified with only 2-40% of the loaded drug remaining within the retrieved capsules.
All animal protocols were approved by the MIT Committee on Animal Care, and all surgical procedures and post-operative care was supervised by MIT Division of Comparative Medicine veterinary staff. Immune-competent male non-diabetic or STZ-induced diabetic C57BL/6 mice (Jackson Laboratory, Bar Harbor, Me.) were anesthetized with 3% isoflurane in oxygen and had their abdomens shaved and sterilized using betadine and isopropanol. Preoperatively, all mice also received a 0.05 mg/kg dose of buprenorphine subcutaneously as a pre-surgical analgesic, along with 0.3 mL of 0.9% saline subcutaneously to prevent dehydration. A […] incision was made along the midline of the abdomen and the peritoneal lining was exposed using blunt dissection. The peritoneal wall was then grasped with forceps and a 0.5-1 mm incision was made along the linea alba. A desired volume of spheres (all materials without islets, as well as SLG20 spheres encapsulating rat islets) were then loaded into a sterile pipette and implanted into the peritoneal cavity through the incision. The incision was then closed using 5-0 taper-tipped polydioxanone (PDS II) absorbable sutures. The skin was then closed over the incision using a wound clip and tissue glue.
At desired time points post-implantation or transplantation (with encapsulated islets), as specified in figures, mice were euthanized by CO2 administration, followed by cervical dislocation. In certain instances, 5 ml of ice cold PBS was first injected in order perform an intraperitoneal lavage to rinse out and collect free-floating intraperitoneal immune cells. An incision was then made using the forceps and scissors along the abdomen skin and peritoneal wall, and intraperitoneal lavage volumes were pipetted out into fresh 15 ml falcon tubes (each prepared with 5 ml of RPMI cell culture media). Next, a wash bottle tip was inserted into the abdominal cavity. KREBS buffer was then used to wash out all material spheres from the abdomen and into petri dishes for collection. After ensuring all the spheres were washed out or manually retrieved (if fibrosed directly to intraperitoneal tissues), they were transferred into 50 mL conical tubes for downstream processing and imaging. After intraperitoneal lavage and sphere retrieval, remaining fibrosed intraperitoneal tissues were also excised for downstream FACS and expression analyses.
For phase contrast imaging, retrieved materials were gently washed using Krebs buffer and transferred into 35 mm petri dishes for phase contrast microscopy using an Evos X1 microscope (Advanced Microscopy Group).
Immunofluorescence imaging was used to determine immune populations attached to spheres. […]

C57BL/6 mice [3] = assay: Anti-fibrotic screening of amorphous drug formulations in 500 μm alginate capsules, 2-week intraperitoneal implantation; format: in vivo; settings: conclusion; alginate hydrogel, ceramic, glass, PDMS and polystyrene beads
Excerpt: For screening of anti-fibrotic drug activity, amorphous drug formulations were encapsulated inside 500 μm alginate capsules. Broad-spectrum anti-inflammatory agents curcumin, dexamethasone, and rapamycin have been used for preventing fibrosis of various biomaterials, such as polymer PLGA and hydrogel alginate. A panel of lead drug candidates (e.g., compounds of Formulae I-X) including the traditional broad-spectrum anti-inflammatories as well as agents targeted to essential macrophage biology pathways (e.g., TNFα, NFκB, p110δ/PI3K, TGFβ, and CSF1R) were selected. […] SLG20 alginate hydrogel spheres with these lead drug candidates were prepared as amorphous formulations to investigate the effect of macrophage immunomodulation on foreign body response. Drugs were encapsulated in amorphous form prepared by first dissolving in an organic solvent (e.g., vehicle in FIGS. 7, 9) then by mixing with alginate aqueous solution. Efficacy in preventing fibrosis was assessed in C57BL/6 mice at 2-weeks post implantation into the intraperitoneal (IP) cavity. Drug-containing spheres (500 μl/animal) were then implanted into the intraperitoneal space of C57BL/6 mice for 14 days. After this period, spheres were harvested and studied for cellular deposition and fibrosis.
All animal protocols were approved by the MIT Committee on Animal Care, and all surgical procedures and post-operative care was supervised by MIT Division of Comparative Medicine veterinary staff. Immune-competent male non-diabetic or STZ-induced diabetic C57BL/6 mice (Jackson Laboratory, Bar Harbor, Me.) were anesthetized with 3% isoflurane in oxygen and had their abdomens shaved and sterilized using betadine and isopropanol. Preoperatively, all mice also received a 0.05 mg/kg dose of buprenorphine subcutaneously as a pre-surgical analgesic, along with 0.3 mL of 0.9% saline subcutaneously to prevent dehydration. A […] incision was made along the midline of the abdomen and the peritoneal lining was exposed using blunt dissection. […]

[4] = system: inflammatory macrophage markers Sphk1, TNFα, Arg1, IL1; assay: NanoString multiplexed gene expression analysis of retrieved capsules; format: in vivo, C57BL/6 mice; settings: amorphous drug-loaded capsules, 2 weeks IP; CSF1R-targeting agents compared
Experimental: RNAs for mock-implanted (mock) controls, or for various drug-loaded 0.5 mm diameter alginate sphere-bearing mice (n=4/group) were isolated from tissue samples taken at various time points after implantation, as described. Respective RNAs were quantified, diluted to the appropriate concentration (100 ng/μl), and then 500 ng of each sample was processed according to NanoString manufacturer protocols for expression analysis via our customized multiplexed gene mouse macrophage subtyping panel. RNA levels (absolute copy numbers) were obtained following nCounter (NanoString Technologies Inc., Seattle, Wash.) quantification, and group samples were analyzed using nSolver analysis software (NanoString Technologies Inc., Seattle, Wash.).

Row | SMILES | fibrosis by phase contrast imaging and confocal microscopy (C57BL/6 mice [2]) | efficacy in inhibiting fibrosis of implanted biomaterial (C57BL/6 mice [3]) | further results
1 | COc1cc(/C=C/C(=O)CC(=O)/C=C/c2ccc(O)c(OC)c2)ccc1O [Curcumin, (1E,6E)-1,7-bis (4-hydroxy-3-methoxyphenyl)-1,6-heptadiene-3,5-dione] | fibrosis free | – | drug release profile ([1]; amorphous curcumin encapsulated in alginate, in vitro up to 2 months): quicker drug release; drug release profile ([1]; crystalline curcumin encapsulated in alginate, in vitro up to 2 months): releases more slowly initially, but can be maintained for much longer periods of time; duration of long-term release (slow surface erosion) ([1]; crystalline curcumin loaded into alginate spheres): at least 2 months; drug release profile ([1]; mixed crystalline:amorphous 3:1 curcumin in alginate): both quick and extended release
2 | Cc1ccc(Nc2c(C(N)=O)cnc3cc(-c4ccc(S(C)(=O)=O)cc4)ccc23)cc1C [cFMS receptor inhibitor III, 4-(3,4-Dimethylanilino)-7-(4-(methylsulfonyl)phenyl)quinoline-3-carboxamide] | – | demonstrated efficacy in inhibiting fibrosis | gene expression responses [4]: almost identical gene expression responses
3 | COc1cc(Oc2ccnc3cc(OC)c(OC)cc23)ccc1NC(=O)NC(C)c1nccs1 (centres unmarked) [Ki20227, N-[4-[(6,7-Dimethoxy-4-quinolinyl)oxy]-2-methoxyphenyl]-N′-[1-(2-thiazolyl)ethyl]urea] | fibrosis free | demonstrated efficacy in inhibiting fibrosis | –
4 | Nc1ccc2ncnc(NCCc3ccc(Oc4ccccc4)cc3)c2c1 [QNZ, N4-(4-phenoxyphenethyl)quinazoline-4,6-diamine] | fibrosis free | – | –
5 | Cc1cccc(-c2nn3c(c2-c2ccnc4ccc(C(N)=O)cc24)CCC3)n1 [LY215799, 4-(2-(6-methylpyridin-2-yl)-5,6-dihydro-4H-pyrrolo[1,2-b]pyrazol-3-yl)quinoline-6-carboxamide] | fibrosis free | – | –
